Measured values from ChEMBL document CHEMBL1759835, “Biotransformation of natural compounds. Oxido-reduction of Sch-642305 by Aspergillus ochraceus ATCC 1009” (Bioorg Med Chem Lett, 2011).

Experiments:
Bacillus subtilis = assay: Antibacterial activity against Bacillus subtilis ATCC 6633 at 100 ug by disk inhibition zone method relative to gentamycin; format: functional; parameters: scale not given: the % may be the effect or the level left
Micrococcus luteus = assay: Antibacterial activity against Micrococcus luteus ATCC 10240 at 100 ug by disk inhibition zone method relative to chloramphenicol; format: functional; parameters: scale not given: the % may be the effect or the level left
K562 = assay: Cytotoxicity against human K562 cells assessed as inhibition of cell proliferation after 72 hrs by MTS assay; format: functional, cell-based; conditions: K562, 72 h
MDA-MB-231 = assay: Cytotoxicity against human MDA-MB-231 cells assessed as inhibition of cell proliferation after 72 hrs by MTS assay; format: functional, cell-based; conditions: MDA-MB-231, 72 h
Escherichia coli = assay: Antibacterial activity against Escherichia coli ATCC 25922 at 100 ug by disk inhibition zone method relative to chloramphenicol; format: functional; parameters: scale not given: the % may be the effect or the level left

Structure (SMILES)	Activity (Bacillus subtilis)	Activity (Micrococcus luteus)	IC50 (K562)	IC50 (MDA-MB-231)	Activity (Escherichia coli)
C[C@H]1CCCC[C@H]2C(=O)CC[C@H](O)[C@@H]2CC(=O)O1	0%	0%	200 nM	400 nM	50%
C[C@H]1CCCC[C@H]2C(=O)C[C@H](O)[C@H](O)[C@@H]2CC(=O)O1	62.5%	0%	20 nM	12 nM	0%
C[C@H]1CCCC[C@H]2C(=O)C=C[C@H](O)[C@@H]2CC(=O)O1	100%	38%	20 nM	20 nM	0%
C[C@H]1CCCC[C@@H]2[C@@H](CC(=O)O1)[C@@H](O)CC[C@@H]2O	0%	0%	4 nM	40 nM	0%
